Results taken from patent publication US20050054647A1, “New pharmaceutical combination” (priority 2002, published 2005).

Tests used:
[1] = test system: CC531 cells; test: Colorectal carcinoma model: CC531 cells implanted into the liver of Wag rats, tumor volume, metastasis and tolerability; assay type: in vivo; conditions: for Tumor Volume: % ± SD compared to untreated controls, CC531 liver tumor in Wag rats, treatment from 7th to 28th postoperative day; for tumor growth / primary tumor volume (in words): treatment day 7-28
Experimental: ombination of 1-(4-Chloroanilino)-4-(4-pyridylmethyl)phthalazine drochloride (ZK) and 3-pyridylmethyl-N-{4-[(2-amino-phenyl)-rbamoyl]benzyl}carbamate (MS) with Tamoxifen (TAM)
C cells CC531 were cultured in vitro (10th-15th passage) and implanted into e liver of adult (250 g) immuncompetent Wag rats (n/group=12). Between the venth and the 28th postoperative day the rats received either a placebo erapy, the conventional chemotherapy 5-fluoruracil (5FU, 10 mg/kg) or the llowing biomodulators alone or in combination: the VEGF receptor antagonist (4-Chloroanilino)-4-(4-pyridylmethyl)phthalazine hydrochloride (ZK) 0mg/kg), the histone deacetylase inhibitor 3-pyridylmethyl-N-{4-[(2-amino-enyl)carbamoyl]benzyl}carbamate (MS) dose and Tamoxifen (TAM) (TAM: g/kg KG i.p.). Apoptosis rate was assessed using a the TUNEL method on raformaldehyd fixed tumor material.

melting point	Compound	Tumor Volume [1] [%]	tumor growth / primary tumor volume (in words) [1]
204 to 209 °C (dec.)	COC(=O)c1ccc(C(=O)NCc2ccc(C(=O)Nc3ccccc3N)cc2)cc1 [Example 11, N-(2-aminophenyl)-4-[N-(4-methoxycarbonylbenzoyl)aminomethyl]benzamide]		
> 270 °C	CC(=O)Nc1ccc(Nc2nnc(Cc3ccncc3)c3ccccc23)cc1 [Example A-11, 1-(4-Acetaminoanilino)-4-(4-pyridylmethyl)phthalazine]		
130 to 133 °C	Cc1ncsc1CCOC(=O)NCc1ccc(C(=O)Nc2ccccc2N)cc1 [Example 64, N-(2-aminophenyl)-4-[N-[2-(4-methylthiazol-5-yl)ethoxycarbonyl]aminomethyl]benzamide]		
199 to 201 °C	Nc1ccccc1NC(=O)c1ccc(-n2cc(COc3cccnc3)oc2=O)cc1 [Example 139, N-(2-aminophenyl)-4-[5-(pyridin-3-yl)oxymethyl-1,3-oxazolin-2-on-3-yl]benzamide]		
	Nc1ccccc1NC(=O)c1ccc(CNC(=O)OCc2cccnc2)cc1 [3-pyridylmethyl-N-{4-[(2-amino-phenyl)-carbamoyl]benzyl}-carbamate]	80 ± 23	
162 to 164 °C	Nc1ccccc1NC(=O)c1ccc(-n2cc(COc3ccc([N+](=O)[O-])cc3)oc2=O)cc1 [Example 137, N-(2-aminophenyl)-4-[5-(4-nitrophenoxy)methyl-1,3-oxazolin-2-on-3-yl]benzamide]		
	Nc1ccccc1NC(=O)c1ccc(CNC(=O)OCc2cccnc2)cc1 [MS, N-(2-aminophenyl)-4-[N-(pyridin-3-yl)methoxycarbonylaminomethyl]benzamide]		no significant reduction
	CC/C(=C(\c1ccccc1)c1ccc(OCCN(C)C)cc1)c1ccccc1 [Tamoxifen (TAM), (Z)-2-[p-(1,2-diphenyl-1-butenyl)phenoxy]-N,N-dimethylethylamine, reference compound]	90 ± 10	no significant reduction
	Clc1ccc(Nc2nnc(Cc3ccncc3)c3ccccc23)cc1.O=C(O)CCC(=O)O [K, (4-Chlorophenyl)[4-(4-pyridylmethyl)-phthalazin-1-yl]-ammonium hydrogen succinate]	94 ± 20	no significant reduction
> 300 °C	Cl.Nc1ccc2c(Cc3ccncc3)nnc(Nc3ccc(Cl)cc3)c2c1		
> 250 °C	CC(C)c1ccc(Nc2nnc(Cc3ccncc3)c3ccccc23)cc1.Cl.Cl		
	O=c1[nH]cc(F)c(=O)[nH]1 [5-Fluorouracil (5FU), 5-Fluorouracil, reference compound]	85 ± 19	did not reduce tumor growth
